Tested on: U2OS WT cells
Assay: Cytoplasmic quinacrine granularity (intracellular ATP, indicator of ATP release)
Format: cell-based, human
Conditions: lurbinectedin 1 nM to 1 μM, MTX 1 and 3 μM, dose-dependent, decreased over time, vs untreated controls
Procedure: (a) Human osteosarcoma U2OS (a), human breast cancer HCC70 (b) human colon cancer HT29 cells (c) and murine methylcholantrene-induced fibrosarcoma MCA205 cells (d) were treated with lurbinectedin (Lurbi, 1 nM, 10 nM, 100 nM and 1 μM) for the indicated times. Subsequently, the cells were stained with 1 μM Hoechst 33342 and 1 μM propidium iodide and assessed for the loss of viability by automated image acquisition. Images were segmented, cellular debris was excluded and the number of cells with normal nuclear morphology was enumerated. Cells stably expressing CALR-GFP were treated as above. Following the cells were fixed with 3.7% of PFA, stained with 1 μM Hoechst 33342 and assessed by automated image acquisition. Images were segmented, cellular debris was excluded and CALR-GFP granularity (a surrogate marker of CALR exposure) was evaluated in the cytoplasmic region of cells with normal nuclear morphology. Wild type cells were treated as above and then assessed for cytoplasmic quinacrine granularity (after staining with the ATP-sensitive dye quinacrine together with Hoechst 33342) by automated image acquisition, segmentation and analysis. Cells stably expressing HMGB1-GFP were treated as above and then assessed for nuclear HMGB1-GFP fluorescence intensity. The cells were fixed and stained with Hoechst 33342 and images were acquired, segmented and analyzed. […]

COc1ccc2[nH]c3c(c2c1)CCN[C@]31CS[C@@H]2c3c(OC(C)=O)c(C)c4c(c3[C@H](COC1=O)N1[C@@H]2[C@H]2c3c(cc(C)c(OC)c3O)C[C@@H]([C@@H]1O)N2C)OCO4 [lurbinectedin] was tested, and the “ATP signal (cytoplasmic quinacrine granularity)” value was “significant decrease”.

From US20250295656A1, “COMBINATION OF LURBINECTEDIN AND IMMUNE CHECKPOINT INHIBITORS” (priority 2020, published 2025)
